Reference: patent US20250263395A1, “COMPOUNDS THAT MEDIATE PROTEIN DEGRADATION AND METHODS OF USE THEREOF” (Monte Rosa Therapeutics AG, priority 2022, published 2025)

Tests used:
CRBN-DDB1 = CRBN-DDB1 (Homo sapiens (Human), UniProt Q96SW2); assay: CRBN HTRF assay (Cy5-Thalidomide probe displacement); format: binding; conditions: CRBN-DDB1 2.5 nM, Cy5-Thalidomide 100 nM, 30 min; Ki from geometric mean IC50 by Cheng-Prusoff
Protocol: Compound activity was monitored in a Homogenous Time-Resolved Fluorescence (HTRF) assay using 1-[5-({2-[2-(2-{[2-(2,6-dioxopiperidin-3-yl)-1,3-dioxo-2,3-dihydro-1H-isoindol-4-yl]oxy}acetamido)ethoxy]ethyl}carbamoyl)pentyl]-3,3-dimethyl-2-[(1E,3E)-5-[(2E)-1,3,3-trimethyl-5-sulfo-2,3-dihydro-1H-indol-2-ylidene]penta-1,3-dien-1-yl]-3H-indol-1-ium-5-sulfonate as a fluorescent probe. Biochemical assays were conducted in Greiner white 384 well HiBase plates (Cat. No 784075-25) in 10 μL total volume. A one pot detection solution of CRBN-DDB1 (2.5 nM), Anti-His Terbium Cryptate Gold (1×, PerkinElmer Cat. #: 61HI2TLB), and Cy5-Thalidomide (100 nM, Tenova Cat.: T52461) was prepared in 20 mM HEPES, 20 mM NaCl, 0.2 mM TCEP, 0.2 mM EDTA, and 0.005% Tween20 was dispensed to each assay plate. Compounds were stored in dry, ambient temperatures at 10 mM. A 10-point, 1:3 dilution series was prepared from 10 mM stock concentrations in Echo-compatible LDV plates. 10 nL of each compound dilution series was dispensed into assays wells using an Echo 650 (Labcyte inc. USA). 10 nL of 10 mM Lenalidomide was transferred into the active-control wells for the assay and 10 nL of DMSO was transferred into the neutral-control wells. The assay was then allowed to incubate for 30 min at ambient temperature after transferring compound. Plate measurements were taken on a Pherastar FSX (BMG Labtech, Germany) using the HTRF Red filter (Ex. 337 nm, em1: 620 nm, em2: 665 nm) (Flashes: 50, Integration time: 60-400 us, Z-height: 10 mm, Ratio-multiplier: 10,000). The HTRF signal was then subsequently normalized to the neutral and active controls. Analysis and IC50 values were derived using KNIME analytics (KNIME Zurich) transformation and fitting within Collaborative Drug Discovery (Collaborative Drug Discovery USA). Ki was derived from the geometric mean of the IC50 values using the Cheng-Prustoff transformation.

CDK2 = CDK2 (Homo sapiens (Human), UniProt P24941); assay: CDK2 NanoBiT assay (HiBiT-tagged CDK2 degradation); format: cell-based; conditions: HEK293, HEK293 clonal line, C-terminal HiBiT tag on CDK2, LgBiT; 24 hours
Protocol: Example 145. NanoBiT Assay
A HEK293 clonal line with a CRISPR knock-in C-terminal HiBiT tag on CDK2 and stably expressing LgBiT protein was obtained from Promega (Madison, WI). Cells were plated at 5000 cells per well using Multiflo (BioTek) in 384-well white solid bottom plates (Corning, 3570BC) in 25 ul volume in DMEM media (DMEM, high glucose, HEPES, no phenol red (ThermoFisher Scientific, 21063029)) containing 10% FBS (Corning, 35-075-CV), 1% Peniciliin/Streptomycin ((ThermoFisher Scientific, 15140-122), and 1% Endurazine (Nano-Glo Endurazine Live Cell Substrate (Promega, N2571)). Cells were incubated for 16 hours at 37 C, 5% CO2. 75 nL of a compound at 30 μM were dosed into the plate using an Echo® 650 liquid handler (Labcyte). Cells were incubated at 37° C., 5% CO2 for 24 hours and then signal was read on a Pherastar FSX using “LUM plus” optic module.
Analysis was performed in Scinamic (Scinamic, Cambridge, MA). Luminescence response (R) was calculated by the formula: response=100*(S−N)/(P−N) where S is the signal of the well, N and P the mean negative and positive control values respectively of the same plate. The luminescence response was then fitted in Scinamic using a 3-parameter agonist logistic fit (hillslope=1, EC50>0, top/bottom unconstrained).

Sequence of CRBN-DDB1 (Q96SW2 whole entry): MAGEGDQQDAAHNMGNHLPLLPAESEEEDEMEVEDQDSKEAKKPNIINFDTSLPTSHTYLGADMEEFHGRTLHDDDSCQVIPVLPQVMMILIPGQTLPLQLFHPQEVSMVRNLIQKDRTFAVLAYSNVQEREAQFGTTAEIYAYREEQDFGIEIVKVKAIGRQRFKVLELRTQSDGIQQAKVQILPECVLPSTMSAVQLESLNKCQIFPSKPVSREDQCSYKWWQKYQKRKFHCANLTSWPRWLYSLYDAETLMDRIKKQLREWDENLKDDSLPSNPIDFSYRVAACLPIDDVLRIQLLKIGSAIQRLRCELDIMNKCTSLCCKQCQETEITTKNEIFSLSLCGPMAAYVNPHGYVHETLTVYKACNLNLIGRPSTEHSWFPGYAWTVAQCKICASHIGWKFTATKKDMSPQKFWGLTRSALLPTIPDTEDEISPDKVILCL
Sequence of CRBN-DDB1 (Q16531 whole entry partner): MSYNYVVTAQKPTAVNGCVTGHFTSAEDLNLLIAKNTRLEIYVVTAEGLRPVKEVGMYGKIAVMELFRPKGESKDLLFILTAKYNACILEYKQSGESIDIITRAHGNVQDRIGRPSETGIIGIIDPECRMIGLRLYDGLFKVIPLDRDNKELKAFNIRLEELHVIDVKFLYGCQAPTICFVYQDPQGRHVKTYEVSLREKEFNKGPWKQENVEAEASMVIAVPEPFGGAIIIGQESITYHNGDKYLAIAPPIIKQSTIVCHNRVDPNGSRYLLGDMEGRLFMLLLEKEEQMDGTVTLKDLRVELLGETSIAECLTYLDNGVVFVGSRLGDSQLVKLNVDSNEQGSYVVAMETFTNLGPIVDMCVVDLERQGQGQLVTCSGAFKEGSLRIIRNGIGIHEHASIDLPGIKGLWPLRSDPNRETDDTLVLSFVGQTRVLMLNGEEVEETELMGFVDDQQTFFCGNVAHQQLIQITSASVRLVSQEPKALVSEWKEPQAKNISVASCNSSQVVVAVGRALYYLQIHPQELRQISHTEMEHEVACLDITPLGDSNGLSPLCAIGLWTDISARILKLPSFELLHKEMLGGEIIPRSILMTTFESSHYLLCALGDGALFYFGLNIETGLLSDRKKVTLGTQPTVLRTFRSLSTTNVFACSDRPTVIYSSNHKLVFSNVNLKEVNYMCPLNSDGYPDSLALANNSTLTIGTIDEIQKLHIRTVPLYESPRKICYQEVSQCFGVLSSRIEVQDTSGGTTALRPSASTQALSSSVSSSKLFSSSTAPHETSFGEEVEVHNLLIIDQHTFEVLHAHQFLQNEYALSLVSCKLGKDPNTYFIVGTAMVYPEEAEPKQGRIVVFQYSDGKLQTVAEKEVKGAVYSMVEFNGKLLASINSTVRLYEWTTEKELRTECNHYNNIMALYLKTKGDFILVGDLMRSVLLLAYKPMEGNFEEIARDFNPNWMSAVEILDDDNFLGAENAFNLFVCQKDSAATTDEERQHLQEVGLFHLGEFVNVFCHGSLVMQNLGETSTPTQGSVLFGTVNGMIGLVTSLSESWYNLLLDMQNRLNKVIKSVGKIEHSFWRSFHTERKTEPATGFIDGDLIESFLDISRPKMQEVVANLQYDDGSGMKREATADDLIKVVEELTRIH

Q: Which Ki (CRBN-DDB1) does the source give for `CN(C)C(=O)N1CC[C@H](OC(=O)NC2CN(c3cc(F)c(C4CCC(=O)NC4=O)c(F)c3)C2)C1` (stereo partly drawn) [Compound 27, (S)-1-(dimethylcarbamoyl)pyrrolidin-3-yl (1-(4-(2,6-dioxopiperidin-3-yl)-3,5-difluorophenyl)azetidin-3-yl)carbamate] here?
A: ≤ 100 nM

Q: What about the Dmax (CDK2) of the same molecule?
A: 10 to 50%

Q: With `O=C1CCC(c2c(F)cc(N3CC(Nc4nnc(-c5ccccc5)o4)C3)cc2F)C(=O)N1` (stereo not drawn) [Compound 104, 3-(2,6-difluoro-4-(3-((5-phenyl-1,3,4-oxadiazol-2-yl)amino)azetidin-1-yl)phenyl)piperidine-2,6-dione] as the molecule, how does the Ki (CRBN-DDB1) read?
A: ≤ 100 nM

Q: What about the Dmax (CDK2) of the same molecule?
A: > 80%

Q: How did the Ki (CRBN-DDB1) turn out when `CN(C(=O)C12CC(OC(=O)NC3CN(c4cc(F)c(C5CCC(=O)NC5=O)c(F)c4)C3)(C1)C2)c1ccc(OC(F)(F)F)cc1` (stereo not drawn) [Compound 125, 3-(methyl(4-(trifluoromethoxy)phenyl)carbamoyl)bicyclo[1.1.1]pentan-1-yl (1-(4-(2,6-dioxopiperidin-3-yl)-3,5-difluorophenyl)azetidin-3-yl)carbamate] was run?
A: ≤ 100 nM

Q: And the Dmax (CDK2)?
A: 50 to 80%

Q: With `Cc1cccc(N(C)C(=O)N2CC(OC(=O)NC3CN(c4cc(F)c(C5CCC(=O)NC5=O)c(F)c4)C3)C2)c1` (stereo not drawn) [Compound 10, 1-(methyl(m-tolyl)carbamoyl)azetidin-3-yl (1-(4-(2,6-dioxopiperidin-3-yl)-3,5-difluorophenyl)azetidin-3-yl)carbamate] as the molecule, how does the Dmax (CDK2) read?
A: > 80%

Q: How did the Ki (CRBN-DDB1) turn out when `CC(C)(C)[Si](C)(C)O[C@H]1C[C@H](COC(=O)NC2CN(c3cc(F)c(C4CCC(=O)NC4=O)c(F)c3)C2)C1` (stereo partly drawn) [Compound 50, ((1r, 3r)-3-((tert-butyldimethylsilyl)oxy)cyclobutyl)methyl (1-(4-(2,6-dioxopiperidin-3-yl)-3,5-difluorophenyl)azetidin-3-yl)carbamate] was run?
A: 100 to 1000 nM

Q: And the Dmax (CDK2)?
A: > 80%

Q: How did the Ki (CRBN-DDB1) turn out when `CC1(Nc2nnc(C3CC4(CCC4)C3)o2)CN(c2cc(F)c(C3CCC(=O)NC3=O)c(F)c2)C1` (stereo not drawn) [Compound 101, 3-(2,6-difluoro-4-(3-methyl-3-((5-(spiro[3.3]heptan-2-yl)-1,3,4-oxadiazol-2-yl)amino)azetidin-1-yl)phenyl)piperidine-2,6-dione] was run?
A: ≤ 100 nM

Q: What about the Dmax (CDK2) of the same molecule?
A: 50 to 80%

Q: Which Ki (CRBN-DDB1) does the source give for `C[C@H]1CC[C@H](COC(=O)NC2CN(c3cc(F)c(C4CCC(=O)NC4=O)c(F)c3)C2)CC1` (stereo partly drawn) [Compound 52, ((1r, 4r)-4-methylcyclohexyl)methyl (1-(4-(2,6-dioxopiperidin-3-yl)-3,5-difluorophenyl)azetidin-3-yl)carbamate] here?
A: ≤ 100 nM

Q: What about the Dmax (CDK2) of the same molecule?
A: > 80%

Q: What does the source list for `O=C1CCC(c2c(F)cc(N3CC(NC(=O)OC4CN(C(=O)N5CC6(CCC6)C5)C4)C3)cc2F)C(=O)N1` (stereo not drawn) [Compound 31, 1-(2-azaspiro[3.3]heptane-2-carbonyl)azetidin-3-yl (1-(4-(2,6-dioxopiperidin-3-yl)-3,5-difluorophenyl)azetidin-3-yl)carbamate]?
A: Ki (CRBN-DDB1): ≤ 100 nM; Dmax (CDK2): 50 to 80%

Q: With `Cc1ccc(N(C)C(=O)N2CC(OC(=O)NC3CN(c4cc(F)c(C5CCC(=O)NC5=O)c(F)c4)C3)C2)nc1` (stereo not drawn) [Compound 110, 1-(methyl (5-methylpyridin-2-yl)carbamoyl) azetidin-3-yl (1-(4-(2,6-dioxopiperidin-3-yl)-3,5-difluorophenyl)azetidin-3-yl) carbamate] as the molecule, how does the Ki (CRBN-DDB1) read?
A: ≤ 100 nM

Q: What about the Dmax (CDK2) of the same molecule?
A: 10 to 50%

Q: Which Ki (CRBN-DDB1) does the source give for `CN(C(=O)C12CC(OC(=O)NC3CN(c4cc(F)c(C5CCC(=O)NC5=O)c(F)c4)C3)(C1)C2)c1ccccc1` (stereo not drawn) [Compound 81, 3-(methyl(phenyl)carbamoyl)bicyclo[1.1.1]pentan-1-yl (1-(4-(2,6-dioxopiperidin-3-yl)-3,5-difluorophenyl)azetidin-3-yl)carbamate] here?
A: ≤ 100 nM

Q: What about the Dmax (CDK2) of the same molecule?
A: > 80%

Q: With `C[C@@H]1[C@@H](Nc2nnc(-c3ccc(C(F)(F)F)cc3)o2)CN1c1cc(F)c(C2CCC(=O)NC2=O)c(F)c1` (stereo partly drawn) [Compound 141, 3-(2,6-difluoro-4-((2R,3S)-2-methyl-3-((5-(4-(trifluoromethyl)phenyl)-1,3,4-oxadiazol-2-yl)amino)azetidin-1-yl)phenyl)piperidine-2,6-dione] as the molecule, how does the Ki (CRBN-DDB1) read?
A: 100 to 1000 nM

Q: And the Dmax (CDK2)?
A: 50 to 80%

Q: For `COc1c(N2CC(Nc3nnc(C4CC5(CCC5)C4)o3)C2)ccc(C2CCC(=O)NC2=O)c1Cl` (stereo not drawn) [Compound 91, 3-(2-chloro-3-methoxy-4-(3-((5-(spiro[3.3]heptan-2-yl)-1,3,4-oxadiazol-2-yl)amino)azetidin-1-yl)phenyl)piperidine-2,6-dione], which Ki (CRBN-DDB1) is on record?
A: 100 to 1000 nM

Q: And the Dmax (CDK2)?
A: > 80%

Q: With `O=C1CCC(c2c(F)cc(N3CC(NC(=O)OC45CC(C(=O)N6CCC6)(C4)C5)C3)cc2F)C(=O)N1` (stereo not drawn) [Compound 126, 3-(azetidine-1-carbonyl)bicyclo[1.1.1]pentan-1-yl (1-(4-(2,6-dioxopiperidin-3-yl)-3,5-difluorophenyl)azetidin-3-yl)carbamate] as the molecule, how does the Ki (CRBN-DDB1) read?
A: ≤ 100 nM

Q: What about the Dmax (CDK2) of the same molecule?
A: 10 to 50%

Q: For `O=C1CCC(c2c(F)cc(N3CC(NC(=O)OCC#CC4CC4)C3)cc2F)C(=O)N1` (stereo not drawn) [Compound 84, 3-cyclopropylprop-2-yn-1-yl (1-(4-(2,6-dioxopiperidin-3-yl)-3,5-difluorophenyl)azetidin-3-yl)carbamate], which Ki (CRBN-DDB1) is on record?
A: ≤ 100 nM

Q: What about the Dmax (CDK2) of the same molecule?
A: 10 to 50%

Q: How did the Ki (CRBN-DDB1) turn out when `COc1ccc(C(=O)N2CC(OC(=O)NC3CN(c4cc(F)c(C5CCC(=O)NC5=O)c(F)c4)C3)C2)cc1` (stereo not drawn) [Compound 21, 1-(4-methoxybenzoyl)azetidin-3-yl (1-(4-(2,6-dioxopiperidin-3-yl)-3,5-difluorophenyl)azetidin-3-yl)carbamate] was run?
A: ≤ 100 nM

Q: And the Dmax (CDK2)?
A: 10 to 50%

Q: `O=C1CCC(c2c(F)cc(N3CC(NC(=O)OC4CN(C(=O)N5CCCC5)C4)C3)cc2F)C(=O)N1` (stereo not drawn) [Compound 32] was tested. Which Dmax (CDK2) did it give?
A: 50 to 80%

Q: For `Cc1ccnc(N2CC(OC(=O)NC3CN(c4cc(F)c(C5CCC(=O)NC5=O)c(F)c4)C3)C2)c1` (stereo not drawn) [Compound 6, 1-(4-methylpyridin-2-yl)azetidin-3-yl (1-(4-(2,6-dioxopiperidin-3-yl)-3,5-difluorophenyl)azetidin-3-yl)carbamate], which Dmax (CDK2) is on record?
A: 50 to 80%

Q: Which Ki (CRBN-DDB1) does the source give for `[2H]C([2H])([2H])N(C(=O)N1CC(OC(=O)NC2CN(c3cc(F)c(C4CCC(=O)NC4=O)c(F)c3)C2)C1)c1ccc(Cl)cc1` (stereo not drawn) [Compound 119, 1-((4-chlorophenyl)(methyl-d3)carbamoyl)azetidin-3-yl (1-(4-(2,6-dioxopiperidin-3-yl)-3,5-difluorophenyl)azetidin-3-yl)carbamate] here?
A: ≤ 100 nM

Q: With `N#Cc1c(N2CC(NC(=O)OCC3CC4(CCC4)C3)C2)ccc(C2CCC(=O)NC2=O)c1Cl` (stereo not drawn) [Compound 85, spiro[3.3]heptan-2-ylmethyl (1-(3-chloro-2-cyano-4-(2,6-dioxopiperidin-3-yl)phenyl)azetidin-3-yl)carbamate] as the molecule, how does the Dmax (CDK2) read?
A: 50 to 80%

Q: With `Cc1ccc(C)c(N(C)C(=O)C23CC(OC(=O)NC4CN(c5cc(F)c(C6CCC(=O)NC6=O)c(F)c5)C4)(C2)C3)c1` (stereo not drawn) [Compound 111] as the molecule, how does the Dmax (CDK2) read?
A: 50 to 80%

Q: Which Ki (CRBN-DDB1) does the source give for `[2H]C([2H])([2H])N(C(=O)N1CC(OC(=O)NC2CN(c3cc(F)c(C4CCC(=O)NC4=O)c(F)c3)C2)C1)c1ccc(C)cc1` (stereo not drawn) [Compound 118, 1-((methyl-d3)(p-tolyl)carbamoyl)azetidin-3-yl (1-(4-(2,6-dioxopiperidin-3-yl)-3,5-difluorophenyl)azetidin-3-yl)carbamate] here?
A: ≤ 100 nM

Q: With `O=C1CCC(c2c(F)cc(N3CC(NC(=O)OCC4CC5(CCC5)C4)C3)cc2F)C(=O)N1` (stereo not drawn) [Compound 1, spiro[3.3]heptan-2-ylmethyl (1-(4-(2,6-dioxopiperidin-3-yl)-3,5-difluorophenyl)azetidin-3-yl)carbamate] as the molecule, how does the Dmax (CDK2) read?
A: > 80%
